From ChEMBL document CHEMBL1765054 (J Med Chem, 2011) come the findings set out here.

Test system in one series: not listed separately
Put plainly: Cmax in C57BL/6 mouse at 10 mg/kg, po. The series is classed as ADME, organism-based. Conditions: in vivo. The arrangement: dose 10 mg/kg, route oral.
For orientation: Cmax means the peak of the concentration-time curve. The molecule `Nc1ccc(-c2ccc3ncc4ccc(=O)n(-c5cccc(C(F)(F)F)c5)c4c3c2)cn1` registered a maximum concentration (Cmax) of 3970 ng/mL.

For the molecule `O=c1ccc2cnc3ccc(-c4cn[nH]c4)cc3c2n1-c1ccc(F)c(C(F)(F)F)c1`, the Cmax is 430 ng/mL.

Regarding `O=c1ccc2cnc3ccc(-c4cnc5[nH]ccc5c4)cc3c2n1-c1ccc(F)c(C(F)(F)F)c1`, the maximum concentration (Cmax) is 98 ng/mL.

`Cc1cc(-n2c(=O)ccc3cnc4ccc(-c5cn[nH]c5)cc4c32)ccc1F` came in with a Cmax of 853 ng/mL.

`Cc1cc(-n2c(=O)ccc3cnc4ccc(-c5cnn(C)c5)cc4c32)ccc1F`: the maximum concentration (Cmax) was determined as 1040 ng/mL.

Test system in the next series: not listed separately
Nature of the series: AUC in C57BL/6 mouse at 10 mg/kg, po. It is filed as ADME, organism-based. Also noted: dose 10 mg/kg, route oral. Conditions: plasma.
As a reminder, the AUC is concentration integrated over time. Take `Nc1ccc(-c2ccc3ncc4ccc(=O)n(-c5cccc(C(F)(F)F)c5)c4c3c2)cn1`: the exposure (AUC) is 4310 ng·h/mL.

As for `O=c1ccc2cnc3ccc(-c4cn[nH]c4)cc3c2n1-c1ccc(F)c(C(F)(F)F)c1`, the AUC was found to be 755 ng·h/mL.

Turning to `O=c1ccc2cnc3ccc(-c4cnc5[nH]ccc5c4)cc3c2n1-c1ccc(F)c(C(F)(F)F)c1`, the AUC is 352 ng·h/mL.

`Cc1cc(-n2c(=O)ccc3cnc4ccc(-c5cn[nH]c5)cc4c32)ccc1F` gave an AUC of 2410 ng·h/mL.

On to `Cc1cc(-n2c(=O)ccc3cnc4ccc(-c5cnn(C)c5)cc4c32)ccc1F`, for which the area under the curve (AUC) is 2070 ng·h/mL.

Test system in a further series: not listed separately
Put plainly: Tmax in C57BL/6 mouse at 10 mg/kg, po. It is filed as ADME, organism-based. Also noted: dose 10 mg/kg, route oral. Conditions: in vivo.
As usually defined, the Tmax is the time from dosing to the highest level. For `O=c1ccc2cnc3ccc(-c4cn[nH]c4)cc3c2n1-c1ccc(F)c(C(F)(F)F)c1`, the Tmax turned out to be 30 min.

Consider `O=c1ccc2cnc3ccc(-c4cnc5[nH]ccc5c4)cc3c2n1-c1ccc(F)c(C(F)(F)F)c1`, for which the time to peak (Tmax) turned out to be 60 min.

Take `Cc1cc(-n2c(=O)ccc3cnc4ccc(-c5cn[nH]c5)cc4c32)ccc1F`: the Tmax is 30 min.

As to `Cc1cc(-n2c(=O)ccc3cnc4ccc(-c5cnn(C)c5)cc4c32)ccc1F`, the Tmax turned out to be 30 min.

Test system in the next series: not listed separately
Nature of the series: Volume of distribution at steady state in C57BL/6 mouse at 1 mg/kg, iv. The series is classed as ADME, organism-based. Also noted: dose 1 mg/kg, route intravenous. Conditions: in vivo, read-out: Vdss.
As to `O=c1ccc2cnc3ccc(-c4cn[nH]c4)cc3c2n1-c1ccc(F)c(C(F)(F)F)c1`, the Vd worked out at 2.42 L/kg.

For `O=c1ccc2cnc3ccc(-c4cnc5[nH]ccc5c4)cc3c2n1-c1ccc(F)c(C(F)(F)F)c1`, the Vd amounted to 1.3 L/kg.

As to `Cc1cc(-n2c(=O)ccc3cnc4ccc(-c5cn[nH]c5)cc4c32)ccc1F`, the Vd amounted to 1.16 L/kg.

Regarding `Cc1cc(-n2c(=O)ccc3cnc4ccc(-c5cnn(C)c5)cc4c32)ccc1F`, the Vd was determined as 1.08 L/kg.

Test system in another series: not listed separately
Put plainly: Cmax in C57BL/6 mouse at 1 mg/kg, iv. It is filed as ADME, organism-based. The arrangement: dose 1 mg/kg, route intravenous. Conditions: in vivo.
In turn, `Nc1ccc(-c2ccc3ncc4ccc(=O)n(-c5cccc(C(F)(F)F)c5)c4c3c2)cn1` yielded a peak concentration (Cmax) of 1540 ng/mL.

Molecule `O=c1ccc2cnc3ccc(-c4cnc5[nH]ccc5c4)cc3c2n1-c1ccc(F)c(C(F)(F)F)c1` yielded a Cmax of 1640 ng/mL.

The molecule `Cc1cc(-n2c(=O)ccc3cnc4ccc(-c5cn[nH]c5)cc4c32)ccc1F` displayed a Cmax of 1040 ng/mL.

For the next series, the system named is Mus musculus. Nature of the series: Bioavailability in C57BL/6 mouse at 10 mg/kg. It is filed as ADME, organism-based. The note with it: in vivo.
In the case of `Nc1ccc(-c2ccc3ncc4ccc(=O)n(-c5cccc(C(F)(F)F)c5)c4c3c2)cn1`, the F came to 51%.

With `O=c1ccc2cnc3ccc(-c4cn[nH]c4)cc3c2n1-c1ccc(F)c(C(F)(F)F)c1`, the F is on record as 19.2%.

For the molecule `O=c1ccc2cnc3ccc(-c4cnc5[nH]ccc5c4)cc3c2n1-c1ccc(F)c(C(F)(F)F)c1`, the F came out at 4.2%.

`Cc1cc(-n2c(=O)ccc3cnc4ccc(-c5cn[nH]c5)cc4c32)ccc1F`: the F was determined as 21.6%.

`Cc1cc(-n2c(=O)ccc3cnc4ccc(-c5cnn(C)c5)cc4c32)ccc1F` returned an F of 28%.
